According to patent US9920072B2, “BACE1 inhibitors” (Hoffmann-La Roche Inc., priority 2014, dated 2018):

Key:
BACE1 = molecular target: T1, BACE1 (Homo sapiens, UniProt P56817); assay: Cellular Aβ-lowering assay (Abeta 40 AlphaLISA, HEK293 APP cells); type: cell-based; settings: 18-20 hrs incubation, Aβ40 in culture supernatant, read-out: BACE1 cell act. Aβ40 IC50
T1 construct: endogenous in cells; host or cells: HEK293 APP cells (HEK293 expressing APP)
Procedure: Cellular Aβ-lowering Assay:
The Abeta 40 AlphaLISA Assay can be used. The HEK293 APP cells were seeded in 96 well Microtiter plates in cell culture medium (Iscove's, plus 10% (v/v) fetal bovine serum, penicillin/streptomycin) to about 80% confluency and the compounds were added at a 3× concentration in ⅓ volume of culture medium (final DMSO concentration was kept at 1% v/v). After 18-20 hrs incubation at 37° C. and 5% CO2 in a humidified incubator, the culture supernatants were harvested for the determination of Aβ40 concentrations using Perkin-Elmer Human Amyloid beta 1-40 (high specificity) Kit (Cat# AL275C).
In a Perkin-Elmer White Optiplate-384 (Cat# 6007290), 2 ul culture supernatants were combined with 2 μl of a 10× AlphaLISA Anti-hAβAcceptor beads+Biotinylated Antibody Anti-Aβ1-40 Mix (50 μg/mL/5 nM). After 1 hour room temperature incubation, 16 μl of a 1.25 × preparation of Streptavidin (SA) Donor beads (25 μg/mL) were added and incubated for 30 minutes in the Dark. Light Emission at 615 nm was then recorded using EnVision-Alpha Reader. Levels of Aβ 40 in the culture supernatants were calculated as percentage of maximum signal (cells treated with 1% DMSO without inhibitor). The IC50 values were calculated using the Excel XLfit software.

[1] = test system: Aβ40 in brain of wild-type mice; assay: Lowering of Aβ40 in brain of wild-type mice; type: in vivo, mouse; settings: female C57Bl/6J mice, 30 mg/kg per os, 4 h after dose, brain Aβ40 as percentage of the vehicle group
Procedure: Lowering of Aβ40 in Brain of Wild-Type Mice:
Animals and Housing Conditions. Animals were maintained in a 12/12 h light/dark cycle, with lights starting at 6 a.m., and experiments were conducted during the light phase. Animal housing and experimental procedures were in line with ethical and legal guidelines and were authorized by local veterinary authorities.
Experiment. Female C57B1/6J mice were treated with a dose of 30 mg/kg of the compounds, 3-4animals per treatment group. The test compound was dissolved in 5% EtOH, 10% Solutol, and was applied per os at 10 mL/kg. After 4 h, the animals were sacrificed and brain and plasma were collected. The brain was cut into halves and immediately frozen on dry ice. Brain was used for measurement of Aβ40 and plasma was used for determination of compound exposure. […] Brain tissue was homogenized in 2% DEA buffer in a Roche MagnaLyser (20″, 4000 rpm) and subsequently centrifuged for 1 h at 100000 g. DEA was reduced to 0.2% in 50 mM NaCl and one-half of the DEA lysate was passed over an Oasis Solid phase extraction plate (Waters; cat. no. 186000679), which had been activated with MeOH and equilibrated in dH2O (1 mL each). After washes in 10% and 30% MeOH (1 mL each), the Aβ-peptides were eluted in 0.8 mL of 2% NH4OH in 90% MeOH. The eluate was dried over a N2 flow, and the dried sample was reconstituted in 30 μL of AlphaLISA assay buffer. Aβ40 was determined by an AlphaLISA assay (Perkin-Elmer). In a white 96-well, half area microplate (Perkin-Elmer cat. no. 6005561), 20 μL of the reconstituted sample were mixed with 5 μL of biotinylated BAP-24 (specific for C-terminus of Aβ40) (Brockhaus, M.; Grunberg, J.; Rohrig, S.; Loetscher, H.; Wittenburg, N.; Baumeister, R.; Jacobsen, H.; Haass, C. Caspasemediated cleavage is not required for the activity of presenilins in amyloidogenesis and NOTCH signaling. NeuroReport 1998, 9, 1481-1486.) stock=4.4 mg/mL, f.c.5.5 μg/mL), and 5 μL 252Q6 acceptor beads (252Q6 antibody, Invitrogen AMB0062) had been previously conjugated with AlphaLISA Acceptor beads (Perkin-Elmer cat. no. 6772002); final dilution 1:500). The mix was incubated for 1 h at RT in the dark. Then 20 μL of Streptavin-coated Donor Beads (Perkin-Elmer cat. no. 6760002, final dilution 1:125) were added and this final mix was incubated in the dark for another 30 min at RT before RFU was measured in an AlphaScreen Reader (Perkin-Elmer Envision 2104). The value obtained for Aβ40 in the treated animals was related to the value in the vehicle group and is given in %. Alternatively a commercial ELISA was used for Aβ40 determination (Wako ELISA: (“Human/Rat β Amyloid (40) ELISA kit Wako II”; cat nr. 294-64701) following the manufacture's instruction. Also here the Aβ-lowering efficacy was calculated as percentage of the vehicle group.

T1 sequence (P56817 46-501): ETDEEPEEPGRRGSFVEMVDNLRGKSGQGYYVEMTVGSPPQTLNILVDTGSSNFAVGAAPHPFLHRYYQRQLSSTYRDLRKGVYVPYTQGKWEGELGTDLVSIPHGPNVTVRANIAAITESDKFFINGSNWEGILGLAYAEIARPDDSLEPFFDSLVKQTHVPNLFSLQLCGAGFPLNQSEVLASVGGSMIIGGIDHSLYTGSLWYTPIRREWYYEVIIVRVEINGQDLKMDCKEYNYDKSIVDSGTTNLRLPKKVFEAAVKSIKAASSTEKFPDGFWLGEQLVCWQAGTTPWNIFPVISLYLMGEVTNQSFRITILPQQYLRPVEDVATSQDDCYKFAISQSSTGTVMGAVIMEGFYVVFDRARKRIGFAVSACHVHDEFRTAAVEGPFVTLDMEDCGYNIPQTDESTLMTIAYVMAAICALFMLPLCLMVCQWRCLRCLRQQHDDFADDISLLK

SMILES | IC50 (BACE1) | Aβ40 (wt mice, brain) ([1]; 30 mg/kg) | Aβ40 (wt mice, brain) [1]
Cc1cc(C#N)cnc1C(=O)Nc1ccc(F)c(C2(C)CS3(=O)=NCCCC3(C)C(N)=N2)n1 (single isomer, unassigned) [Example 1, N-[6-(5-amino-4a,7-dimethyl-9-oxido-2,3,4,4a,7,8-hexahydro-9λ^4-[1,4]thiazino[2,1-f][1,2]thiazin-7-yl)-5-fluoropyridin-2-yl]-5-cyano-3-methylpyridine-2-carboxamide] | 0.2 nM | 62% | –
Cc1cc(C#N)cnc1C(=O)Nc1ccc(F)c(C2(C)CS3(=O)=NCCCCC3(C)C(N)=N2)n1 (single isomer, unassigned) [Example 2, N-[6-(6-amino-5a,8-dimethyl-10-oxido-3,4,5,5a,8,9-hexahydro-2H-10λ^4-[1,4]thiazino[2,1-g][1,2]thiazepin-8-yl)-5-fluoropyridin-2-yl]-5-cyano-3-methylpyridine-2-carboxamide] | 0.2 nM | 48% | –
Cc1cc(C#N)cnc1C(=O)Nc1ccc(F)c(C2(C)CS3(=O)=NCCCCC3(C)C(N)=N2)n1 (single isomer, unassigned) [Example 3, N-[6-(6-amino-5a,8-dimethyl-10-oxido-3,4,5,5a,8,9-hexahydro-2H-10λ^4-[1,4]thiazino[2,1-g][1,2]thiazepin-8-yl)-5-fluoropyridin-2-yl]-5-cyano-3-methylpyridine-2-carboxamide] | 13.8 nM | 95% | –
Cc1cc(C#N)cnc1C(=O)Nc1ccc(F)c(C2(C)CS3(=O)=NCCCCC3(C)C(N)=N2)n1 (single isomer, unassigned) [Example 4, N-[6-(6-amino-5a,8-dimethyl-10-oxido-3,4,5,5a,8,9-hexahydro-2H-10λ^4-[1,4]thiazino[2,1-g][1,2]thiazepin-8-yl)-5-fluoropyridin-2-yl]-5-cyano-3-methylpyridine-2-carboxamide] | 0.4 nM | 83% | –
Cc1cc(C#N)cnc1C(=O)Nc1ccc(F)c(C2(CF)CS3(=O)=NCCCC3(C)C(N)=N2)n1 (single isomer, unassigned) [Example 5] | 0.8 nM | 88% | –
Cc1cc(C#N)cnc1C(=O)Nc1ccc(F)c(C2(CF)CS3(=O)=NCCCC3(C)C(N)=N2)n1 (single isomer, unassigned) [Example 6] | 218 nM | – | –
CC12CCCN=S1(=O)CC(CF)(c1nc(NC(=O)c3ccc(OCC(F)(F)C(F)F)cn3)ccc1F)N=C2N (single isomer, unassigned) [Example 7] | 46 nM | – | –
Cc1cc(C#N)cnc1C(=O)Nc1ccc(F)c(C2(CF)CS3(=O)=NCCCC3(C)C(N)=N2)n1 (single isomer, unassigned) [Example 8] | > 200 nM | – | –
Cc1cc(C#N)cnc1C(=O)Nc1ccc(F)c(C2(CF)CS3(=O)=NCCCC3(C)C(N)=N2)n1 (single isomer, unassigned) [Example 9] | 98 nM | 113% | –
Cc1cc(C#N)cnc1C(=O)Nc1ccc(F)c(C2(C)CS3(=O)=NCCCC3(C)C(N)=N2)n1 (single isomer, unassigned) [Example 10] | 2.9 nM | 89% | –
CC1(c2nc(NC(=O)c3ncc(C#N)cc3Cl)ccc2F)CS2(=O)=NCCCC2(C)C(N)=N1 (single isomer, unassigned) [Example 11] | 2.3 nM | – | 90%
CC1(c2nc(NC(=O)c3ccc(OCC(F)(F)C(F)F)cn3)ccc2F)CS2(=O)=NCCCC2(C)C(N)=N1 (single isomer, unassigned) [Example 12] | 320 nM | – | 77%
